Values quoted from earlier work as cited in paper PMC3906704 (Journal of molecular biochemistry, 2012).

Conditions: substitution of Gly6 in GnRH-I; ref Karten & Rivier 1986

**Q.** Which “Potency relative to native GnRH-I” value does the source give for “L-Ala^6: GnRH analog with L-Ala^6 substitution (QHWSYALRPG; Gonadoliberin-1; UniProt P01148 24-33, looked up, variant G6A)” here?
**A.** The value was 4%.
